From ChEMBL document CHEMBL5150067 (J Med Chem, 2022)

How the values were obtained:
[1] = Inhibition of Hedgehog-signalling dependent purmorphamine induced osteoblast differentiation in mouse C3H 10T1/2 cells assessed as residual activity by measuring ALP expression at 10 uM incubated for 96 hrs by CDP-Star luminogenic substrate based assay relative to control; type: functional
[2] = Inhibition of Hedgehog-signalling dependent purmorphamine induced osteoblast differentiation in mouse C3H 10T1/2 cells assessed as reduction in ALP expression incubated for 96 hrs by CDP-Star luminogenic substrate based assay; type: functional, cell-based; details: C3H 10T1/2, 96 h
[3] = target: T1, Aryl hydrocarbon receptor (Mus musculus, UniProt P30561); assay: Activation of AhR in purmorphamine-treated mouse C3H 10T1/2 cells assessed as translocation of AhR from cytoplasm to nucleus at 1 nM incubated for 24 hrs by immunostaining based analysis; type: cell-based; details: c3h 10t1/2, 24 h, 0.001 µM
T1 sequence (P30561 whole entry): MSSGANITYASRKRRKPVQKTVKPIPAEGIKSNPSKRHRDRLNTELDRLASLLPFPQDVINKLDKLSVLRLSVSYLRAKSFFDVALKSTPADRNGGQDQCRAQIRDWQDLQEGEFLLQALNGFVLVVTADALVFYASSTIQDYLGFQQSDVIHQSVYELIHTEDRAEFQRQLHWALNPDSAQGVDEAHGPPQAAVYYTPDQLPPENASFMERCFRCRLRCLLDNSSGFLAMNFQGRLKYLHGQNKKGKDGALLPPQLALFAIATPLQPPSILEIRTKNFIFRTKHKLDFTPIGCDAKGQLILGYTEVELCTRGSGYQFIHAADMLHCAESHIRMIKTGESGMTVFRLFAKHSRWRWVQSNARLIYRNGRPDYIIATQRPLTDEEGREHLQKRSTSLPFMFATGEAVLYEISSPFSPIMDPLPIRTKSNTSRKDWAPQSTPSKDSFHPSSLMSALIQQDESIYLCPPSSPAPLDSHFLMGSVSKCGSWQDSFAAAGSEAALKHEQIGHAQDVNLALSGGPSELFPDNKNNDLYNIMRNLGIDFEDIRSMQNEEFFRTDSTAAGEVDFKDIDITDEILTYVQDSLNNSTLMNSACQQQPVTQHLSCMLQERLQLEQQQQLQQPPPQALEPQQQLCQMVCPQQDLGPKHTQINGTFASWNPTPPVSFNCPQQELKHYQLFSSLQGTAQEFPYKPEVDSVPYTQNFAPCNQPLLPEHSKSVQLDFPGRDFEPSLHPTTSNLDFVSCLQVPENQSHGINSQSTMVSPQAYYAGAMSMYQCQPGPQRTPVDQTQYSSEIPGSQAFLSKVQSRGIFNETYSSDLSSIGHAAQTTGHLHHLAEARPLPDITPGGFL

[4] = target: T1, Aryl hydrocarbon receptor; assay: Activation of AhR in purmorphamine-treated mouse C3H 10T1/2 cells assessed as upregulation of Cyp1B1 mRNA levels measured after 96 hrs by RT-qPCR analysis; type: cell-based; details: c3h 10t1/2, 96 h, DDE = dose-dependent effect, dose 0.001-1 nM

Row | IC50 [2] [pM] | Structure (SMILES) | Activity [1] [%] | further results
1 | 4200 | O=C1c2ccc(Br)cc2C[C@H]2c3ccccc3CCN12 | 44.2 | 
2 |  | O=C1c2ccc(Cl)c(F)c2C[C@H]2c3ccccc3CCN12 | 67.2 | 
3 |  | Cc1ccc2c(c1)C[C@H]1c3ccccc3CCN1C2=O | 93.2 | 
4 |  | COc1ccc2c(c1)C[C@H]1c3ccccc3CCN1C2=O | 114 | 
5 |  | O=C1c2cc(Cl)cc(Cl)c2C[C@H]2c3ccccc3CCN12 | 53.2 | 
6 | 1200 | O=C1c2ccc(Cl)cc2C[C@H]2c3ccccc3CCN12 | 30.4 | 
7 |  | O=C1c2ccc(I)cc2C[C@H]2c3ccccc3CCN12 | 57.8 | 
8 |  | CC(C)c1ccc2c(c1)C[C@H]1c3ccccc3CCN1C2=O | 90.1 | 
9 | 700 | O=C1c2ccc(C(F)(F)F)cc2C[C@H]2c3ccccc3CCN12 | 33.1 | 
10 | 1100 | O=C1c2ccc(Cl)c(Cl)c2C[C@H]2c3ccccc3CCN12 | 36 | 
11 | 4 | O=C1c2cc(I)c(Cl)cc2C[C@H]2c3ccccc3CCN12 | 30.7 | 
12 |  | O=C1c2ccc(F)cc2C[C@H]2c3ccccc3CCN12 | 61.2 | 
13 |  | O=C1c2ccccc2C[C@H]2c3ccccc3CCN12 | 100 | 
14 |  | O=C1c2cc(Br)c(Cl)cc2C[C@H]2c3ccccc3CCN12 |  | Activity [3]: Active; Activity [4]: Dde
15 |  | O=C1c2ccccc2C[C@H]2c3ccccc3CCCN12 | 134 | 
16 |  | COc1cc2c(cc1OC)C(=O)N1CCc3cc(OC)c(OC)cc3[C@@H]1C2 | 55.2 | 
17 |  | O=C1c2cccc(Cl)c2C[C@H]2c3ccccc3CCN12 | 53 | 
18 |  | COc1cc2c(cc1F)CCN1C(=O)c3ccccc3C[C@@H]21 | 127 | 
19 | 850000 | O=C1c2ccc(Cl)cc2C[C@@H]2c3ccccc3CCN12 | 27.4 | 
20 |  | COc1cc2c(cc1OC)[C@@H]1Cc3ccccc3C(=O)N1CC2 | 96.5 | 
21 | 360 | O=C1c2cc(Br)c(Cl)c(Br)c2C[C@H]2c3ccccc3CCN12 | 27.9 | 
22 | 38 | COc1cc2c(cc1Cl)C[C@H]1c3ccccc3CCN1C2=O | 13.4 | 
23 |  | O=C1c2ccccc2C[C@H]2c3ccccc3CN12 | 29.2 | 
24 |  | O=C1c2ccccc2C[C@H]2c3ccc(Cl)cc3CCN12 | 87 | 
